US20260217983A1, “SULFONIUM SALT PHOTOINITIATORS AND METHODS OF LED CURING A COMPOSITION WITH SAID SULFONIUM SALT PHOTOINITIATORS” (ARKEMA FRANCE, priority 2022, published 2026)

How the values were obtained:
[1] = Real time FT-IR curing performance in UViCure S105 at 365 and 385 nm; details: for Polymerization rate Rp/[M0]*100 / Final conversion: UViCure S105, 20 μm thickness, under air; for Final conversion: epoxide band; for cure speed compared with photoinitiators known from prior art such as Omnicat BL 550: LED lamp conditions, Example 2
Procedure: (§1) The curing performance of individual products prepared above was assessed using real time FT-IR measurement. The photoinitiators were dissolved in cycloaliphatic epoxy resin UViCure S105 (available from Sartomer) at the indicated wt % loading, applied onto the FT-IR measurement plate and irradiated with the indicated LED light source. The polymerization rate and final reactive group conversion were determined by monitoring the change of the relevant infrared band near 900 cm^−1 corresponding to an epoxide ring during irradiation. The molar extinction coefficients for the photoinitiator products (ε, expressed in M^−1 cm^−1) were determined in acetonitrile at 10^-3 M or 10^-5 M concentration.

[2] = Molar extinction coefficient in acetonitrile; assay type: physicochemical
Procedure: as §1

[3] = Belt curing performance (thumb-twist depth cure) in UViCure S105E resin; details: 24 μm film, under air, PI 2 wt %
Procedure: (§2) The photoinitiators were dissolved either in neat UViCure S105E resin or a hybrid acrylate/epoxy resin (prepared by mixing 60 wt parts UViCure S105E, 15 wt parts UViCure S130 and 25 wt parts SR492; all product are available from Sartomer). Formulations were prepared by combining all materials in the given proportions and then stirring at 30-40° C. until the samples were fully homogeneous; the formulations were then allowed to cool to room temperature. For all experiments, the formulations were cured on Leneta Form 3N-31 gloss finish paper at 6 μm and 24 μm film thickness using a belt-cure instrument; the films were prepared using a K-bar. All films were then cured under an LED lamp at a given belt speed. ‘Depth cure’ for each formulation was assessed using the ‘thumb-twist’ test (where no visible mark is made when a thumb is pressed down firmly onto the coating with a twisting motion), and from the belt speed; the calculated cure speed (in m/min) is given.

[4] = Belt curing performance (thumb-twist depth cure) in hybrid acrylate/epoxy resin; details: for Cure speed in hybrid acrylate/epoxy resin: 24 μm film, under air, PI 2 wt %
Procedure: as §2

[5] = Solubility in propylene carbonate at ambient temperature; assay type: physicochemical; details: 20-25° C.
Procedure: Solubility of selected sulfonium salts in propylene carbonate at ambient temperature (20-25° C.) was determined.

[6] = Thermal stability by DSC in UViCure S105E resin; assay type: physicochemical; details: DSC at 10° C./min, loading 1 wt % (Omnicat BL550 4 wt %; Speedcure 938/CPTX 1/0.5 wt %)
[7] = Thermal stability by DSC in TMPTA resin; assay type: physicochemical; details: DSC at 10° C./min, loading 1 wt %
Procedure: (§3) Formulations comprising the photoinitiators and neat UViCure S105E resin and/or TMPTA resin were prepared as described at example 2.

[8] = Thermal stability by DSC in TMPTA/UViCure S105E (1:1) hybrid resin; assay type: physicochemical; details: DSC at 10° C./min, loading 1 wt %
Procedure: as §3

[9] = FTIR-ATR cure test of hybrid formulations (acrylate, epoxide conversion, 1100 cm^-1 peak growth); details: 405 nm; for Epoxide cure compared with Omnicat 550: 0.5% TPO-L, matched with control SC938/CPTX; for Epoxide cure compared with Omnicat 550 / acrylate cure with or without radical photoinitiator: high or low epoxide hybrid systems; for epoxide cure and total cationic cure compared with Omnicat 550 and SC992: in presence or absence of radical photoinitiator
Procedure: Matrixes: In a 1000 mL of metal can, formulation matrix was charged according to the percentage in Table 12. The 1000-1005 g mixture of each matrix sample was prepared and mixed by mechanical mixer for about 1 hour around 60° C. until the solution became clear. Formulations: In a white max 50 jar from FlackTek Inc., photoinitiator and propylene carbonate were loaded at first, mixed by hand with stainless steel spatula, placed in 60° C. oven for about 1 h, mixed again until it became clear. Then, formulation matrix was charged according to the percentage in one of Table 13 to 21. The […]-52.60 g mixture of each sample was prepared and mixed for 3 minutes at 3000 RPM in Speed Mixer from FleackTec Inc. Then, all jars were placed in 60° C. oven for about 2 h, taken out and immediately mixed for another 2 minutes until the solution became clear.
A Fourier Transform Infrared (FTIR) with an Attenuated Total Reflection (ATR) setup was used. All polymerization rate measurements were performed using Nicolet iS50 FT-IR Spectrometer from Thermo Scientific, equipped with a standard DLaTGS detector. A lamp holder for the ART platform of FTIR unit can be customized and printed from Arkema N3xtDimention® engineered resin N3D-TOUGH784 in order to ensure precisely fit of a 365 nm lamp Accucure ULM-2-365 or a 405 nm lamp Accucure ULM-2-405 from Digital Light Labs. On the bottom of this lamp holder, a dry air channel is built in to allow air uniformly blowing over sample surface, the gas flow rate can be controlled over a rotameter. The LED light was manually triggered by Ultraviolet illumination & Measurement System. LED light exposure can be programed by AccuCure software. For measurement, 25 μL of liquid sample was placed in the center of an ATR crystal. 3 mil of thin film was prepared by a customized coating applicator (3 mil WFM, G1046 from BYK). The LED lamp with holder was place on the top of ART platform. Then FTIR scan was initiated to collect liquid IR spectrum at first. Each IR spectrum of a specific exposure time at 10 mW/cm^2 of LED light were collected. Measurements of acrylate conversion were taken at the peak height under the reference peak around 1727 cm^−1; the acrylate peak of SR833S at approximately 1407 cm^−1, the epoxide peak of UviCure S105 at approximately 790 cm^−1, and the oxetane peak of UViCure S130 at approximately 970 cm^−1 were also measured. Since the ring opening of both epoxide and oxetane generated C—O—C bond, the growth of C—O—C IR peak height at ~1100 cm^−1 was monitored as well. The resulting of peak 1100 cm^−1 growth rate could be calculated to assess total cationic cure speed. Peak heights were determined using the same baseline where a baseline is chosen to be the two lowest points between 600 cm^−1 and 1800 cm^−1. The peak height under the peak and above the baseline was then determined. The integration limits for liquid and the cured sample are not identical but are similar, especially for the reference peak.
The ratios of the acrylate peak height, epoxide peak height, ring opening peak height from both epoxide and oxetane to the reference peak height were determined for both the liquid and the cured samples. Degree of cure or conversion or peak growth rate, expressed as percentage reacted acrylate or epoxide or ring opening of both epoxide and oxetane, was calculated from the equation below: […]
Where Rliq is the peak height ratio of the liquid sample and Rc is the peak height ratio of the LED cured sample. The resulting acrylate and epoxide conversions or C—O—C growth rates were collected and listed in Tables 13 to 21, plotted in FIG. 1 to 8 and FIG. 10.

[10] = LED @365 nm (120 W/cm^2), PI loading 1 wt % (Omnicat BL 550 4 wt %; Speedcure 938/CPTX 1/0.5 wt %)
[11] = LED 365 nm, 100% intensity (=70.1 mJ/cm^2), belt speed 40 m/min
[12] = LED 395 nm, 40 m/min, 100% intensity (=164.5 mJ/cm^2)
[13] = LED 395 nm, 80 m/min, 50% intensity (=36.9 mJ/cm^2)

CC(C)c1ccc2sc3ccc(-[s+]4c5ccccc5c(=O)c5cc(C(C)C)ccc54)cc3c(=O)c2c1 (centres unmarked) [Photoinitiator 1, 9-oxo-10-[9-oxo-7-(propan-2-yl)-9H-thioxanthen-2-yl]-2-(propan-2-yl)-9H-thioxanthen-10-ium hexafluorophosphate]
Polymerization rate Rp/[M0]*100 [1, 10]: 8.93 s⁻¹ | Final conversion ([1]; LED @365 nm (120 W/cm^2)): 35% | Polymerization rate Rp/[M0]*100 ([1]; LED @385 nm (160 W/cm^2)): 8.89 s⁻¹ | Final conversion ([1]; LED @385 nm (160 W/cm^2)): 36% | ε at 365 nm [2]: 23380 M⁻¹ cm⁻¹ | ε at 385 nm [2]: 23514 M⁻¹ cm⁻¹ | Cure speed in UViCure S105E resin [3, 11]: 12.2 m/min | Cure speed in UViCure S105E resin [3, 12]: 20.0 m/min | Cure speed in hybrid acrylate/epoxy resin [4, 11]: 20.0 m/min | Cure speed in hybrid acrylate/epoxy resin [4, 13]: 40.0 m/min | Solubility in propylene carbonate [5]: >50 wt % | onset temperature of thermal polymerisation [6]: ~220° ° C. | onset temperature of thermal polymerisation [7]: 150 °C | onset temperature of thermal polymerisation [8]: 133 °C | Epoxide cure compared with Omnicat 550 [9]: better than that from Omnicat 550

Cc1ccc([S+](c2ccc(C(=O)c3ccccc3)cc2)c2ccc3sc4ccc(C(C)C)cc4c(=O)c3c2)cc1 (centres unmarked) [Photoinitiator 2, (4-benzoylphenyl)(4-methylphenyl)[9-oxo-7-(propan-2-yl)-9H-thioxanthen-2-yl]sulfonium Hexafluorophosphate]
Polymerization rate Rp/[M0]*100 [1, 10]: 4.11 s⁻¹ | Final conversion ([1]; LED @365 nm (120 W/cm^2)): 41% | Polymerization rate Rp/[M0]*100 ([1]; LED @385 nm (160 W/cm^2)): 5.96 s⁻¹ | Final conversion ([1]; LED @385 nm (160 W/cm^2)): 41% | cure speed compared with photoinitiators known from prior art such as Omnicat BL 550 [1]: higher cure speed | ε at 365 nm [2]: 14201 M⁻¹ cm⁻¹ | ε at 385 nm [2]: 14921 M⁻¹ cm⁻¹ | Cure speed in UViCure S105E resin [3, 11]: 4.6 m/min | Cure speed in UViCure S105E resin [3, 12]: 10.0 m/min | Cure speed in hybrid acrylate/epoxy resin [4, 11]: 11.1 m/min | Cure speed in hybrid acrylate/epoxy resin [4, 13]: 16.4 m/min | Solubility in propylene carbonate [5]: >48 wt % | onset temperature of thermal polymerisation [6]: ~240° ° C. | onset temperature of thermal polymerisation [7]: 170 °C | onset temperature of thermal polymerisation [8]: 117 °C

CCc1cc(CC)c2sc3ccc([S+](c4ccc(C)cc4)c4ccc(C(=O)c5ccccc5)cc4)cc3c(=O)c2c1 (centres unmarked) [Photoinitiator 4, (4-benzoylphenyl)(5,7-diethyl-9-oxo-9H-thioxanthen-2-yl)(4-methylphenyl)sulfonium Hexafluorophosphate]
Polymerization rate Rp/[M0]*100 [1, 10]: 5.74 s⁻¹ | Final conversion ([1]; LED @365 nm (120 W/cm^2)): 25% | Polymerization rate Rp/[M0]*100 ([1]; LED @385 nm (160 W/cm^2)): 4.80 s⁻¹ | Final conversion ([1]; LED @385 nm (160 W/cm^2)): 25% | cure speed compared with photoinitiators known from prior art such as Omnicat BL 550 [1]: higher cure speed | ε at 365 nm [2]: 13154 M⁻¹ cm⁻¹ | ε at 385 nm [2]: 13649 M⁻¹ cm⁻¹ | Cure speed in UViCure S105E resin [3, 11]: 3.7 m/min | Cure speed in UViCure S105E resin [3, 12]: 5.2 m/min | Cure speed in hybrid acrylate/epoxy resin [4, 11]: 17.8 m/min | Cure speed in hybrid acrylate/epoxy resin [4, 13]: 15.1 m/min | Solubility in propylene carbonate [5]: >47 wt % | Epoxide cure compared with Omnicat 550 [9]: better than that from Omnicat 550 | acrylate cure with or without radical photoinitiator [9]: high acrylate cure | epoxide cure and total cationic cure compared with Omnicat 550 and SC992 ([9]; hybrid systems): better epoxide cure and total cationic cure than Omnicat 550 and SC992 | acrylate cure in presence of BKL or XKm, or without any radical initiator ([9]; hybrid systems, like SC938/CPTX): could cure acrylate very well

CCCOc1ccc(Cl)c2c(=O)c3cc(-[s+]4c5ccccc5c(=O)c5c(Cl)ccc(OCCC)c54)ccc3sc12 (centres unmarked) [Photoinitiator 5, 1-chloro-10-(8-chloro-9-oxo-5-propoxy-9H-thioxanthen-2-yl)-9-oxo-4-propoxy-9H-thioxanthen-10-ium Hexafluorophosphate]
Polymerization rate Rp/[M0]*100 [1, 10]: 6.57 s⁻¹ | Final conversion ([1]; LED @365 nm (120 W/cm^2)): 36% | Polymerization rate Rp/[M0]*100 ([1]; LED @385 nm (160 W/cm^2)): 5.90 s⁻¹ | Final conversion ([1]; LED @385 nm (160 W/cm^2)): 39% | cure speed compared with photoinitiators known from prior art such as Omnicat BL 550 [1]: higher cure speed | ε at 365 nm [2]: 37326 M⁻¹ cm⁻¹ | ε at 385 nm [2]: 23429 M⁻¹ cm⁻¹ | Cure speed in UViCure S105E resin [3, 11]: 13.3 m/min | Cure speed in UViCure S105E resin [3, 12]: 13.3 m/min | Cure speed in hybrid acrylate/epoxy resin [4, 11]: 40.0 m/min | Cure speed in hybrid acrylate/epoxy resin [4, 13]: 80.0 m/min | belt cure speed compared with photoinitiator 1 ([4]; at 80 m/min in hybrid acrylate/epoxy resin at both 365 nm and 395 nm): superior cure speed | Solubility in propylene carbonate [5]: 42 wt % | onset temperature of thermal polymerisation [6]: ~214° ° C. | onset temperature of thermal polymerisation [7]: 165 °C | onset temperature of thermal polymerisation [8]: 120 °C | Epoxide cure compared with Omnicat 550 [9]: better than that from Omnicat 550 | acrylate cure with or without radical photoinitiator [9]: high acrylate cure | epoxide cure and total cationic cure compared with Omnicat 550 and SC992 ([9]; hybrid systems): better epoxide cure and total cationic cure than Omnicat 550 and SC992
